In patent US20210346357A1 (priority 2020, published 2021):

Tests used:
[1] = Pharmacokinetics in plasma and lung in mouse; format: in vivo; details: single oral aspiration 0.2 mg/mL 50 μL
Method: Assay 5: Pharmacokinetics in Plasma and Lung in Mouse
Plasma and lung concentrations of test compounds and ratios thereof were determined in the following manner. BALB/c mice from Charles River Laboratories were used in the assay. Test compounds were individually formulated in 20% propylene glycol in pH 4 citrate buffer at a concentration of 0.2 mg/mL and 50 μL of the dosing solution was introduced into the trachea of a mouse by oral aspiration. At various time points (typically 0.167, 2, 6, 24 hr) post dosing, blood samples were removed via cardiac puncture and intact lungs were excised from the mice. Blood samples were centrifuged (Eppendorf centrifuge, 5804R) for 4 minutes at approximately 12,000 rpm at 4° C. to collect plasma. […] Plasma and lung concentrations of test compound were determined by LC-MS analysis against analytical standards constructed into a standard curve in the test matrix. A lung-to-plasma ratio was determined as the ratio of the lung AUC in μg hr/g to the plasma AUC in μg hr/mL, where AUC is conventionally defined as the area under the curve of test compound concentration vs. time.

[2] = target: Abl2 (Homo sapiens, UniProt P42684); experiment: biochemical; details: ATP 10 μM
Abl2, sequence (P42684 whole entry): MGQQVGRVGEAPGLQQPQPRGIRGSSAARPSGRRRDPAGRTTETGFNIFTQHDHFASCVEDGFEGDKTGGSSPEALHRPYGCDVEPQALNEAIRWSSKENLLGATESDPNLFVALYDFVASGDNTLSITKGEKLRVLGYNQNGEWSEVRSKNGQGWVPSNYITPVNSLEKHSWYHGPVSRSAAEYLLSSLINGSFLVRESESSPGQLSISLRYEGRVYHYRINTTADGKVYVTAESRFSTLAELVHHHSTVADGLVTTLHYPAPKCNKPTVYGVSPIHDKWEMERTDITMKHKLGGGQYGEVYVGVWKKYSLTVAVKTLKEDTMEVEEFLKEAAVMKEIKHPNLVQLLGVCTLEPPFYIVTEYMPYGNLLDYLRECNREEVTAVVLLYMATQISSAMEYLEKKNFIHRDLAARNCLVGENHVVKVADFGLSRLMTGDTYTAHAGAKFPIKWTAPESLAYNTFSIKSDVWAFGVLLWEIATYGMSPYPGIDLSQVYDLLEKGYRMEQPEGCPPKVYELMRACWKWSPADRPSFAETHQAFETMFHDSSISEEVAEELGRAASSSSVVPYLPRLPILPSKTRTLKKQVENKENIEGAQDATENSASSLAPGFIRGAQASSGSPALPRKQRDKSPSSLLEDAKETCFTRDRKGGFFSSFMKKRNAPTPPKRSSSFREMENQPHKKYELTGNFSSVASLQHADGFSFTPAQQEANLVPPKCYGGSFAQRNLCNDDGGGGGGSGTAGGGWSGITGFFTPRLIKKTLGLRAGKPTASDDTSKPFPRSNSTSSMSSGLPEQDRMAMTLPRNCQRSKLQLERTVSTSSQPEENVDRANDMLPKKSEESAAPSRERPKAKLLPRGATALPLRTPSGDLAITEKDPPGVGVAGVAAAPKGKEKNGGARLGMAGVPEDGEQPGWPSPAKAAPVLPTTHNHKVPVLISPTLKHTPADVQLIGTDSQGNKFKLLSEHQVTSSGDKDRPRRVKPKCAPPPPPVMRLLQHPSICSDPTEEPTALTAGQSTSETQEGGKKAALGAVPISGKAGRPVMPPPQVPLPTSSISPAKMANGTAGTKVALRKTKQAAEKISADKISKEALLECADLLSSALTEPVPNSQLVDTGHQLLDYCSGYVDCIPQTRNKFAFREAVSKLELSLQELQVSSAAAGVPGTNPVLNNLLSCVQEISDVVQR

[3] = system: IL-13 induced pSTAT6 in lung tissue; experiment: Murine model of IL-13 induced pSTAT6 induction in lung tissue; format: in vivo; details: mouse lung, oral aspiration 1 mg/mL 50 μL, IL-13 challenge at 4 h; scale 0% to 100% inhibitory effect
Description: Assay 3: Murine (Mouse) Model of IL-13 induced pSTAT6 Induction in Lung Tissue
IL-13 is an important cytokine underlying the pathophysiology of asthma (Kudlacz et al. Eur. J. Pharmacol, 2008, 582,154-161). IL-13 binds to cell surface receptors activating members of the Janus family of kinases (JAK) which then phosphorylate STAT6 and subsequently activates further transcription pathways. In the described model, a dose of IL-13 was delivered locally into the lungs of mice to induce the phosphorylation of STAT6 (pSTAT6) which is then measured as the endpoint.
Adult Balb/c mice from Harlan were used in the assay. […] Animals were placed in lateral recumbency post dose and monitored for full recovery from anesthesia before being returned to their home cage. Four hours later, animals were once again briefly anesthetized and challenged with either vehicle or IL-13 (0.03 μg total dose delivered, 50 μL total volume) via oral aspiration before being monitored for recovery from anesthesia and returned to their home cage. […] Plasma and lung levels of test compound were determined by LC-MS analysis against analytical standards constructed into a standard curve in the test matrix. A lung to plasma ratio was determined as the ratio of the lung concentration in ng/g to the plasma concentration in ng/mL at 5 hours. […]

CCc1cc(O)ccc1-c1ccc2c(-c3nc4c([nH]3)CN(C(C)C)[C@H](C(=O)N3CC(N(C)C)C3)C4)n[nH]c2c1 [Compound 1, (S)-(3-(dimethylamino)azetidin-1-yl)(2-(6-(2-ethyl-4-hydroxyphenyl)-1H-indazol-3-yl)-5-isopropyl-4,5,6,7-tetrahydro-3H-imidazo[4,5-c]pyridin-6-yl)methanone]
Lung Tissue AUC(0-24) [1]: 54.5 µg·h/g
Plasma AUC(0-24) [1]: 943 ng·h/mL
IC50 [2]: 15 nM
pSTAT6 inhibition at 5 hours [3]: 75
